Reference: US20230096145A1, “METHODS OF CONTROLLING OR PREVENTING INFESTATION OF PLANTS BY THE PHYTOPATHOGENIC MICROORGANISM CORYNESPORA CASSIICOLA” (SYNGENTA CROP PROTECTION AG, priority 2020, published 2023)

Test system: Corynespora cassiicola
Test: Corynespora cassiicola liquid culture growth inhibition (microtiter plate, PDB)
Format: cell-based
Settings: compared to untreated control, photometric at 620 nm after 3-4 days at 24 C
Method: Conidia of the fungus from cryogenic storage were directly mixed into nutrient broth (PDB potato dextrose broth). A DMSO solution of the test compounds was placed into a microtiter plate (96-well format) and the nutrient broth containing the fungal spores was added to it. The test plates were incubated at 24 C and the inhibition of growth (% control of Corynespora cassiicola) was determined photometrically after 3-4 days at 620 nm. The activity of a compound is derived by comparing the inhibition of growth in the treated test solution to the growth in the untreated check. The concentration of the compounds was 6.7, 2.2, 0.74, 0.25, 0.082 and 0.027 ppm.

| Compound | inhibition at 6.7 ppm [%] |
| --- | --- |
| Cc1ccc2c(C3=NC(C)(C)C(F)(F)c4ccccc43)cnn2c1C [Compound 1] | ≥ 70 |
| Cc1cccc2c(C3=NC(C)(C)C(F)(F)c4ccccc43)cnn12 [Compound 2] | ≥ 70 |
| Cc1ccc2c(C3=NC(C)(C)C(F)(F)c4ccccc43)cnn2c1 [Compound 3] | ≥ 70 |
| Cc1ccc2c(C3=NC(C)(C)C(F)(F)c4c(F)cccc43)cnn2c1C [Compound 4] | ≥ 70 |
| Cc1ccc2c(C3=NC(C)(C)C(F)(F)c4cc(F)ccc43)cnn2c1C [Compound 5] | ≥ 70 |
